Measurements reported in patent publication US20160318866A1, “SUBSTITUTED BIPIPERIDINYL DERIVATIVES” (Bayer Pharma Aktiengesellschaft, priority 2013, published 2016).
Structures can show the parent of a compound that is named as a salt.

Target: T1, human α2C receptor (Homo sapiens, UniProt P18825)
T1 construct: expressed in transfected cells; host or cells: CHO cells, also recombinantly expressing chimeric G protein Gαqi3 and mitochondrial obelin (mtOb)
T1 sequence (P18825 1-462): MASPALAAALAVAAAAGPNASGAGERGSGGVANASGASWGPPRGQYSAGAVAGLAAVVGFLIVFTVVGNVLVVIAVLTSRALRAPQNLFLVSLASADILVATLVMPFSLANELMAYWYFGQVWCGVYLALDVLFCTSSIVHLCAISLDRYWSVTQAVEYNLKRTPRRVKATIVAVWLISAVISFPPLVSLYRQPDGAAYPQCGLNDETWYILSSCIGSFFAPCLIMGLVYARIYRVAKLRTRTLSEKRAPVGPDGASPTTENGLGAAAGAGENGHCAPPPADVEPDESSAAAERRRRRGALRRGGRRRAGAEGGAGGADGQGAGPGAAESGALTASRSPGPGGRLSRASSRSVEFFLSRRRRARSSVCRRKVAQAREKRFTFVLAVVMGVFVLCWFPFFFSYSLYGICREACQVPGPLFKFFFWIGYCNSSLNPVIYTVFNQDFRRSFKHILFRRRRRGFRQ
Experiment: Antagonism against the adrenoreceptor α2C (luminescence, recombinant CHO cell line)
Assay type: cell-based
Settings: not given
Method: Antagonism against the adrenoreceptor α1A was tested using a recombinant human α1A receptor CHO cell line which additionally also recombinantly expresses mtAeq (mitochondrial aequorin). Antagonism against the adrenoreceptor α2A was tested using a recombinant human α2A-Gα16 receptor fusion protein CHO cell line (PerkinElmer Life Sciences) which additionally also recombinantly expresses mtAeq. Antagonism against the adrenoreceptor α2B was tested using a recombinant human α2B receptor CHO cell line (PerkinElmer Life Sciences) which additionally also recombinantly expresses mtAeq. Antagonism against the adrenoreceptor α2C was tested using a recombinant human α2C receptor CHO cell line which additionally also recombinantly expresses a chimaric G protein (Gαqi3) and mtOb (mitochondrial obelin).
The cells were cultivated at 37° C. and 5% CO2 in Dulbecco's modified Eagle's Medium/NUT mix F12 with L-glutamine which additionally contains 10% (v/v) inactivated foetal calf serum, 1 mM sodium pyruvate, 0.9 mM sodium bicarbonate, 50 U/ml penicillin, 50 μg/ml streptomycin, 2.5 μg/ml amphotericin B and 1 mg/ml Geneticin. The cells were passaged with enzyme-free Hank's-based cell dissociation buffer. All cell culture reagents used are from Invitrogen (Carlsbad, USA).
Luminescence measurements were carried out on white 384-well microtitre plates. 2000 cells/well were plated in a volume of 25 μl and cultivated for one day at 30° C. and 5% CO2 in cell culture medium with coelenterazine (α2A and α2B: 5 μg/ml; α1a/c and α2C: 2.5 μg/ml). Serial dilutions of the test substances (10 μl) were added to the cells. After 5 minutes, noradrenalinee was added to the cells (35 μl; final concentrations: 20 nM (α1a/c and α2C) or 200 nM (α2A and α2B)), and the emitted light was measured for 50 seconds using a CCD (charge-coupled device) camera (Hamamatsu Corporation, Shizuoka, Japan) in a light-tight box. The test substances were tested up to a maximum concentration of 10 μM. The IC50 values were calculated from the appropriate dose-response curves.

`CNCC1(c2ccc(C(=O)N3CCC(N4CCCC(C)C4)CC3)cc2)CCC1` (stereo not drawn) [Example 68, (4-{1-[(Methylamino)methyl]cyclobutyl}phenyl) (3-methyl-1,4′-bipiperidin-1′-yl)methanone trifluoroacetic acid salt] was tested, and the IC50 was 4 nM.

Same assay, conditions: antagonism against adrenoreceptor α2C; noradrenaline 20 nM; tested up to 10 μM; read-out: IC50

Going from `CC(C)(C)c1ccc(C(=O)N2CCC(N3CCCC(OC(=O)N4CCCC4)C3)CC2)cc1` (stereo not drawn) [Example 40, 1′-(4-tert-Butylbenzoyl)-1,4′-bipiperidin-3-yl-pyrrolidin-1-carboxylate trifluoroacetic acid salt] to `CCOC(=O)C1CCCN(C2CCN(C(=O)c3ccc(C(C)(C)OC)cc3)CC2)C1` (stereo not drawn) [Example 42, Ethyl 1′-[4-(2-methoxypropan-2-yl)benzoyl]-1,4′-bipiperidine-3-carboxylate], the IC50 falls from 127 nM to 26 nM (4.9-fold).

`COC(=O)C(C)(C)c1ccc(C(=O)N2CCC(N3CCCC(C)C3)CC2)c(F)c1` (stereo not drawn) [Example 41, Methyl 2-{3-fluoro-4-[(3-methyl-1,4′-bipiperidin-1′-yl)carbonyl]phenyl}-2-methylpropanoate trifluoroacetic acid salt] and `CC1CCCN(C2CCN(C(=O)c3ccc(C(C)(C)C(=O)NC(C)(C)C)cc3F)CC2)C1` (stereo not drawn) [Example 65, N-tert-Butyl-2-{3-fluoro-4-[(3-methyl-1,4′-bipiperidin-1′-yl)carbonyl]phenyl}-2-methylpropanamide] are within 1.5-fold of each other in IC50: 199 nM for the first, 134 nM for the second.

First: CC(c1ccccc1)N(C)C(=O)c1ccc(C(=O)N2CCC(N3CCC[C@@H](C)C3)CC2)cc1 (stereo partly drawn) [Example 43, N-Methyl-4-{[(3R)-3-methyl-1,4′-bipiperidin-1′-yl]carbonyl}-N-(1-phenylethyl)benzamide]
Second: CC(C)CN(C)C(=O)c1ccc(C(=O)N2CCC(N3CCCC(C)C3)CC2)cc1 (stereo not drawn) [Example 48, N-methyl-4-[(3-methyl-1,4′-bipiperidin-1′-yl)carbonyl]-N-(2-methylpropyl) benzamide]
The IC50 of the first is 5.1-fold lower: 39 nM for the first, 199 nM for the second.

First: CCCC(C)NC(=O)c1ccc(C(=O)N2CCC(N3CCCC(C)C3)CC2)cc1 (stereo not drawn) [Example 44, 4-[(3-methyl-1,4′-bipiperidin-1′-yl)carbonyl]-N-(pentan-2-yl)benzamide]
Second: COCC(C)NC(=O)c1ccc(C(=O)N2CCC(N3CCCC(C)C3)CC2)cc1 (stereo not drawn) [Example 55, N-(1-methoxypropan-2-yl)-4-[(3-methyl-1,4′-bipiperidin-1′-yl)carbonyl]benzamide]
The IC50 of the first is 6-fold lower: 55 nM for the first, 330 nM for the second.

Compared with `CC1CCCN(C2CCN(C(=O)c3ccc(C(=O)NCc4ccncc4)cc3)CC2)C1` (stereo not drawn) [Example 45, 4-[(3-methyl-1,4′-bipiperidin-1′-yl)carbonyl]-N-(pyridin-4-yl-methyl) benzamide], `CC1CCCN(C2CCN(C(=O)c3ccc(C(=O)NCc4cccc(OC(F)(F)F)c4)cc3)CC2)C1` (stereo not drawn) [Example 70, 4-[(3-Methyl-1,4′-bipiperidin-1′-yl)carbonyl]-N-[3-(trifluoromethoxy)benzyl]benzamide trifluoroacetic acid salt] is 2.3-fold higher in IC50: 82 nM for the first, 190 nM for the second. The first is the more potent here.

Compared with `CC1CCN(C(=O)c2ccc(C(=O)N3CCC(N4CCCC(C)C4)CC3)cc2)C(C)C1` (stereo not drawn) [Example 46, (2,4-dimethylpiperidin-1-yl){4-[(3-methyl-1,4′-bipiperidin-1′-yl)carbonyl]phenyl} methanone], `CC1CCCN(C2CCN(C(=O)c3ccc(C(=O)N(C)C4CCCCC4)cc3)CC2)C1` (stereo not drawn) [Example 49, N-cyclohexyl-N-methyl-4-[(3-methyl-1,4′-bipiperidin-1′-yl)carbonyl] benzamide] is 2.7-fold higher in IC50: 128 nM for the first, 348 nM for the second. The first is the more potent here.

`CC1CCCN(C2CCN(C(=O)c3ccc(C(=O)NC(C)C(C)C)cc3)CC2)C1` (stereo not drawn) [Example 47, 4-[(3-methyl-1,4′-bipiperidin-1′-yl)carbonyl]-N-(3-methylbutan-2-yl)benzamide] and `CC1CCCN(C2CCN(C(=O)c3ccc(C(=O)NC(C)Cn4cccn4)cc3)CC2)C1` (stereo not drawn) [Example 54, 4-[(3-methyl-1,4′-bipiperidin-1′-yl)carbonyl]-N-[1-(1H-pyrazol-1-yl)propan-2-yl]benzamide] are within 1.5-fold of each other in IC50: 150 nM for the first, 199 nM for the second.

`Cc1cc(CN(C)C(=O)c2ccc(C(=O)N3CCC(N4CCCC(C)C4)CC3)cc2)on1` (stereo not drawn) [Example 50, N-methyl-4-[(3-methyl-1,4′-bipiperidin-1′-yl)carbonyl]-N-[(3-methyl-1,2-oxazol-5-yl)methyl]benzamide] and `CC1CCCN(C2CCN(C(=O)c3ccc(C(=O)N(C)CC4(C)COC4)cc3)CC2)C1` (stereo not drawn) [Example 52, N-methyl-4-[(3-methyl-1,4′-bipiperidin-1′-yl)carbonyl]-N-[(3-methyloxetan-3-yl)methyl]benzamide] are within 1.5-fold of each other in IC50: 169 nM for the first, 182 nM for the second.

Going from `CCCN(CC1CC1)C(=O)c1ccc(C(=O)N2CCC(N3CCCC(C)C3)CC2)cc1` (stereo not drawn) [Example 51, N-(cyclopropyl-methyl)-4-[(3-methyl-1,4′-bipiperidin-1′-yl)carbonyl]-N-propylbenzamide] to `CC1CCCN(C2CCN(C(=O)c3ccc(C4(CN(C)C=O)CCC4)cc3)CC2)C1` (stereo not drawn) [Example 67, N-Methyl-N-[(1-{4-[(3-methyl-1,4′-bipiperidin-1′-yl)carbonyl]phenyl}cyclobutyl)methyl]formamide trifluoroacetic acid salt], the IC50 falls from 180 nM to 51 nM (3.5-fold). The second is the more potent here.

Going from `CC1CCCN(C2CCN(C(=O)c3ccc(C(=O)NC(CO)Cc4ccc(Cl)cc4)cc3)CC2)C1` (stereo not drawn) [Example 53, N-[1-(4-chlorophenyl)-3-hydroxypropan-2-yl]-4-[(3-methyl-1,4′-bipiperidin-1′-yl)carbonyl]benzamide] to `Cc1noc(C)c1NC(=O)c1ccc(C(=O)N2CCC(N3CCCC(C)C3)CC2)cc1` (stereo not drawn) [Example 56, N-(3,5-dimethyl-1,2-oxazol-4-yl)-4-[(3-methyl-1,4′-bipiperidin-1′-yl)carbonyl]benzamide], the IC50 falls from 198 nM to 35 nM (5.7-fold). The second is the more potent here.

`CC1CCCN(C2CCN(C(=O)c3ccc(C4(CN(C)S(C)(=O)=O)CCC4)cc3)CC2)C1` (stereo not drawn) [Example 57, N-Methyl-N-[(1-{4-[(3-methyl-1,4′-bipiperidin-1′yl)carbonyl]phenyl}cyclobutyl)methyl]methanesulphonamide] and `CC1CCCN(C2CCN(C(=O)c3ccc(C4(CNC=O)CCC4)cc3)CC2)C1` (stereo not drawn) [Example 66, N-[(1-{4-[(3-Methyl-1,4′-bipiperidin-1′-yl)carbonyl]phenyl}cyclobutyl)methyl]formamide hydrochloride] are within 1.5-fold of each other in IC50: 18 nM for the first, 15 nM for the second.

Compared with `COCC1CCCN(C2CCN(C(=O)c3ccc(C(C)(C)O)cc3)CC2)C1` (stereo not drawn) [Example 58, [4-(2-Hydroxypropan-2-yl)phenyl][3-(methoxymethyl)-1,4′-bipiperidin-1′-yl]methanone], `Cc1n[nH]c(C2CCCN(C3CCN(C(=O)c4ccc(C(C)(C)O)cc4)CC3)C2)n1` (stereo not drawn) [Example 63, [4-(2-Hydroxypropan-2-yl)phenyl][3-(3-methyl-1H-1,2,4-triazol-5-yl)-1,4′-bipiperidin-1′-yl]methanone] is 5.1-fold higher in IC50: 25 nM for the first, 128 nM for the second.

Going from `CC(C)(O)c1ccc(C(=O)N2CCC(N3CCCC(c4nnc(C5CC5)[nH]4)C3)CC2)cc1` (stereo not drawn) [Example 60, [3-(5-Cyclopropyl-4H-1,2,4-triazol-3-yl)-1,4′-bipiperidin-1′-yl][4-(2-hydroxypropan-2-yl)phenyl]methanone] to `CC(C)(O)c1ccc(C(=O)N2CCC(N3CCCC(c4nc(C5CCC5)n[nH]4)C3)CC2)cc1` (stereo not drawn) [Example 61, [3-(5-Cyclobutyl-4H-1,2,4-triazol-3-yl)-1,4′-bipiperidin-1′-yl][4-(2-hydroxypropan-2-yl)phenyl]methanone], the IC50 rises from 45 nM to 111 nM (2.5-fold). The first is the more potent here.

Compared with `CCc1nc(C2CCCN(C3CCN(C(=O)c4ccc(C(C)(C)O)cc4)CC3)C2)n[nH]1` (stereo not drawn) [Example 62, [3-(5-Ethyl-1H-1,2,4-triazol-3-yl)-1,4′-bipiperidin-1′-yl][4-(2-hydroxypropan-2-yl)phenyl]methanone], `CC(C)(O)c1ccc(C(=O)N2CCC(N3CCCC(c4ncn[nH]4)C3)CC2)cc1` (stereo not drawn) [Example 64] is 2.6-fold higher in IC50: 154 nM for the first, 393 nM for the second. The first is the more potent here.

Work on `CC(C)(O)c1ccc(C(=O)N2CCC(N3CCCC(c4nc(CC5CCC5)n[nH]4)C3)CC2)cc1` (stereo not drawn) [Example 69, {3-[5-(Cyclobutylmethyl)-4H-1,2,4-triazol-3-yl]-1,4′-bipiperidin-1′-yl}[4-(2-hydroxypropan-2-yl)phenyl]methanone] yielded an IC50 of 25 nM.
